Reference: US5827837A, “Polyanion anti-inflammatory agents” (priority 1996, dated 1998)
Read-outs that look alike come from different tables or passages of the source.

Tests used:
selectin = experiment: Selectin-sulfatide interactions; type: binding
[1] = target: T1, P-selectin-lg fusion protein (Homo sapiens, UniProt P16109); experiment: LS 180 colon cancer cell adhesion to immobilized P-selectin-Ig; type: cell-based
T1 construct: Each selectin-lg contains the lectin domain, epidermal growth factor domain, and one (L-selectin-lg), two (P-selectin-lg) or six (E-selectin-lg) complement regulatory repeats; made in house
Protocol: (§1) Cell adhesion assays on immobilized selectin-lg were performed essentially as described (Nelson, R. M., et al., J. Clin. Invest., 91:1157, 1993; Nelson, R. M., et al., Symposia on Quant. Biol., 57:271, 1992). Briefly, Nunclon Terasaki Microwell plates were coated overnight with 5 μl/well of a 5 μg/ml solution of protein A (Chemicon, Temecula, Calif.) in 50 mM carbonate buffer, pH 9.5. Protein-A-coated plates were washed with Dulbecco's phosphate buffered saline (PBS), incubated for 1 hour with L-, P-, or E-selectin-lg fusion proteins in PBS (5-20 μg/ml), washed again, and blocked with PBS containing 1% human serum albumin (HSA). To measure inhibition of cell adhesion, 5 μl/well of lnsP6 in PBS was added to the selectin-lg coated plates and incubated for 30 min at […]. LS 180 cells were harvested by brief trypsinization and resuspended at 1.5×10^6 cells/ml in PBS containing 1% HSA; five μl/well of suspension was added, and incubated for 30 min at 4° C. After washing to remove unbound cells, adherent cells were fixed with glutaraldehyde (2.5% in PBS) and counted. Symbols and error bars represent mean number of adherent cells/mm^2 ±s.e.m., counted in quadruplicate wells in a single experiment representative of three. No LS 180 cell adhesion was detected on plates coated with protein A alone, or on plates coated with protein A-captured CD8-lg fusion protein.
(§2) LS 180 cells (ATCC, Rockville, Md.) were added to cell culture wells containing protein A-captured selectin-lg fusion proteins and incubated for 30 min at 4° C. to allow adhesion. The plates were washed to remove unbound cells and adherent cells were counted microscopically. To determine adhesion blocking activity, InsP6 at the indicated concentrations was added to selectin-lg-coated wells 30 min prior to addition of LS 180 cells.

[2] = target: T2, L-selectin-lg fusion protein (Homo sapiens, UniProt P14151); experiment: Competition ELISA: binding of L-selectin-Ig to immobilized BSA-sLe^x
T2 construct: Each selectin-lg contains the lectin domain, epidermal growth factor domain, and one (L-selectin-lg), two (P-selectin-lg) or six (E-selectin-lg) complement regulatory repeats; made in house
Excerpt: Selectin-lg fusion proteins are recombinant chimeric molecules containing extracellular regions of selectins coupled to the hinge, CH2, and CH3 regions of human IgG1 (Aruffo, A., et al., Cell, 67:35, 1991; Walz, G., et al., Science, 250:1132, 1990). Each selectin-lg contains the lectin domain, epidermal growth factor domain, and one (L-selectin-lg), two (P-selectin-lg) or six (E-selectin-lg) complement regulatory repeats of the parent molecules. DNAs encoding selectin-Ig inserted in pCDM7 allowed transient expression of recombinant proteins in COS cells as previously described (Seed, B., et al., Proc. Natl. Acad. Sci., U.S.A., 84:3365, 1987; Aruffo, A., Current Protocols In Molecular Biology, eds. Ausubel, F. M., et al, 16:13.1, Greene Publishing Associates and Wiley-lnterscience, New York, N.Y., 1992). These DNAs were also ligated into pNUT (Palmiter, R. D., et al, Cell, 50:435, 1987) for amplification and stable expression in BHK cells. The fusion proteins were affinity purified from culture media using protein A (Pierce Chemical Company, Rockford, Ill.) or protein G (Pharmacia, Piscataway, N.J.) Sepharose, as previously described (Aruffo, A., et al., Cell, 67:35, 1991; Aruffo, A., Current Protocols In Molecular Biology, eds. Ausubel, F. M., et al, supra, 1992). Competition binding ELISAs using P- and E-selectin-lg were performed essentially as described (Nelson, R. M., et al., J. Clin. […] Selectin concentrations were from 10 to 30 nM. […] To increase L-selectin binding, an assay similar to that previously described was used (Foxall, C., et al., J. Cell Biol., 117:895, 1992), in which the L-selectin-lg (10-20 nM) was allowed to form aggregates with HRP-conjugated anti-lg antibody for 30 minutes prior to addition of inositols and incubation on the BSA-sLe^x -coated plate. IC50 values were calculated by fitting binding data to the equation: fraction of maximal binding=IC50 […] using nonlinear least squares analysis software (Origin, Microcal Inc, Northampton, Mass.). InsP6 (dodecasodium salt), InsS6 (hexapotassium salt), myo-inositol 1 monophosphate (cyclohexylammonium salt), and myo-inositol were from Sigma Chemical Company (St. Louis, Mo.). Stock solutions were prepared daily in 0.9% NaCl and sterilized by 0.22 μm filtration. InsP6 solutions were adjusted at pH 7.4 with HCl.
L-, P-, or E-selectin-lg fusion proteins were incubated for 2-3 hours on microtiter plates coated with the neoglycoprotein BSA-sLe^x, the plates washed, and bound selectin-lg was detected using a peroxidase-conjugated antibody directed against the lg portion and a chromogenic substrate. To determine blocking activity, solution-phase lnsP6 (.circle-solid.), InsS6 (.largecircle.), or inositol (.box-solid.) at the indicated concentrations were added to the solutions containing selectin-Ig fusion proteins prior to transfer to microtiter plates (competition ELISA).

[3] = target: T2, L-selectin-lg fusion protein; experiment: LS 180 colon cancer cell adhesion to immobilized L-selectin-Ig; type: cell-based
Protocol: as §1, §2

| SMILES | blocking of selectin-sulfatide interactions (selectin) | LS 180 adhesion to P-selectin-Ig [1] | blocking of L-selectin-Ig binding ([2]; BSA-sLe^x competition ELISA) | LS 180 adhesion to L-selectin-Ig [3] | inhibition at 4000 µM ([1]; LS180, 4 mM, single experiment) | IC50 ([2]; BSA-sLe^x competition ELISA, read-out: IC50, L-selectin binding) | inhibition at 4000 µM ([3]; LS180, 4 mM, single experiment) | IC50 [2] | blocking of L-selectin-Ig at reduced Ca^2+ ([2]; Ca^2+ reduced to 0.15 mM) |
| --- | --- | --- | --- | --- | --- | --- | --- | --- | --- |
| O[C@H]1[C@H](O)[C@@H](O)[C@H](O)[C@@H](O)[C@H]1O [myo-inositol, reference compound] | not inositol) blocked selectin-sulfatide interactions | inactive at concentrations up to 5 mM | not myo-isositol, blocked binding | inactive at concentrations up to 5 mM | – | – | – | – | – |
| O=S(=O)(O)O[C@H]1[C@H](OS(=O)(=O)O)[C@@H](OS(=O)(=O)O)[C@H](OS(=O)(=O)O)[C@@H](OS(=O)(=O)O)[C@H]1OS(=O)(=O)O [InsS6, myo-inositol hexakissulfate] | blocked selectin-sulfatide interactions at concentrations similar to those that were effective in blocking the binding to BSA-sLe^x | – | – | – | ~45% | 210 ± 110 µM | ~45% | – | – |
| O=P(O)(O)O[C@H]1[C@H](OP(=O)(O)O)[C@@H](OP(=O)(O)O)[C@H](OP(=O)(O)O)[C@@H](OP(=O)(O)O)[C@H]1OP(=O)(O)O [InsP6, myo-inositol hexakisphosphate] | blocked selectin-sulfatide interactions at concentrations similar to those that were effective in blocking the binding to BSA-sLe^x | blocked the adhesion of LS 180 cells | – | blocked the adhesion of LS 180 cells | – | – | – | 3.1 ± 0.5 µM | not enhanced |
